Assay results from patent publication US10246462B2, “Chemokine receptor modulators and uses thereof” (FLX Bio, Inc., priority 2016, dated 2019).
Structures can show the parent of a compound that is named as a salt.

target: CCR4 (Homo sapiens (Human), UniProt P51679); test: Calcium mobilization (Ca Flux) assay; assay type: cell-based
Description: Calcium Mobilization Assay. Calcium mobilization experiments may be performed by labeling the human T-cell line CEM with […] dye (45 min at room temperature), washing with PBS, and re-suspending into flux buffer (HBSS with 1% FBS).

CCR4, sequence (P51679 whole entry): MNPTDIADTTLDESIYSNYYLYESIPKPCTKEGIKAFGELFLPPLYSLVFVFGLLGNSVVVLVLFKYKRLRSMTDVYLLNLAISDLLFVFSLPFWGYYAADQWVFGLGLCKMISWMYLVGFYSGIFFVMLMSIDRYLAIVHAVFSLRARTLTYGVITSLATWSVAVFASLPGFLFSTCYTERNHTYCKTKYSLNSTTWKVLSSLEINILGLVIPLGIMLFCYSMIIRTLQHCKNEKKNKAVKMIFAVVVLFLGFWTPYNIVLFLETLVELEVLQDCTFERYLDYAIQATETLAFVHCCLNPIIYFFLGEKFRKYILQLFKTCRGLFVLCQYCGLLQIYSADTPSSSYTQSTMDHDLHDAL

| SMILES | IC50 [nM] |
| --- | --- |
| Cc1nn([C@H](C)c2ccc(Cl)cc2Cl)c2nc(N3CC[C@@H](N4CCC[C@H]4CCS(N)(=O)=O)[C@@H](C)C3)cnc12 [Example 53, 2-((S)-1-((3S,4R)-1-(1-((R)-1-(2,4-Dichlorophenyl)ethyl)-3-methyl-1H-pyrazolo[3,4-b]pyrazin-6-yl)-3-methylpiperidin-4-yl)pyrrolidin-2-yl)ethane-1-sulfonamide hydrochloride] | 100 to 500 |
| Cc1nn([C@H](C)c2ccc(Cl)cc2Cl)c2nc(N3CC[C@H](N4CCC[C@H]4CCC(N)=O)[C@H](C)C3)cnc12 [Example 44, 3-((S)-1-((3R,4S)-1-(1-((R)-1-(2,4-Dichlorophenyl)ethyl)-3-methyl-1H-pyrazolo[3,4-b]pyrazin-6-yl)-3-methylpiperidin-4-yl)pyrrolidin-2-yl)propanamide hydrochloride] | < 100 |
| Cc1nn([C@H](C)c2ccc(Cl)cc2Cl)c2nc(N3CC[C@H](N4CCC[C@H]4C(C)(C)O)[C@H](C)C3)cnc12 [Example 36, 2-((S)-1-((3R,4S)-1-(1-((R)-1-(2,4-Dichlorophenyl)ethyl)-3-methyl-1H-pyrazolo[3,4-b]pyrazin-6-yl)-3-methylpiperidin-4-yl)pyrrolidin-2-yl)propan-2-ol hydrochloride] | 100 to 500 |
| Cc1nn([C@H](C)c2ccc(Cl)cc2Cl)c2nc(N3CCC(N4CCC[C@H]4C4CC4C(=O)O)C(C)C3)cnc12 (mixture of isomers) [Example 54, 2-((2S)-1-(1-(1-((R)-1-(2,4-Dichlorophenyl)ethyl)-3-methyl-1H-pyrazolo[3,4-b]pyrazin-6-yl)-3-methylpiperidin-4-yl)pyrrolidin-2-yl)cyclopropane-1-carboxylic acid] | > 500 |
| CC(c1ccc(Cl)cc1Cl)n1nc(C(N)=O)c2ncc(N3CCC(N4CCCCC4)C(CO)C3)nc21 (stereo not drawn) [Example 27, 1-(1-(2,4-Dichlorophenyl)ethyl)-6-(3′-(hydroxymethyl)-[1,4′-bipiperidin]-1′-yl)-1H-pyrazolo[3,4-b]pyrazine-3-carboxamide hydrochloride] | 100 to 500 |
| Cc1nn([C@H](C)c2ccc(Cl)cc2Cl)c2nc(N3CC[C@H](N4CC=CC4)[C@H](C)C3)cnc12 [Example 17, 1-((R)-1-(2,4-Dichlorophenyl)ethyl)-6-((3R,4S)-4-(2,5-dihydro-1H-pyrrol-1-yl)-3-methylpiperidin-1-yl)-3-methyl-1H-pyrazolo[3,4-b]pyrazine hydrochloride] | 100 to 500 |
| Cc1nn([C@H](C)c2ccc(Cl)cc2Cl)c2nc(N3CCC(N4CCC[C@H]4CCC(O)C(F)(F)F)C(C)C3)cnc12 (single isomer, unassigned) [Example 46, hydrochloride] | 100 to 500 |
| CC1CN(c2cnc3c(C(N)=O)nn(C(C)c4ccc(Cl)cc4Cl)c3n2)CCC1N1CCCCC1 (stereo not drawn) [Example 4, 1-(1-(2,4-Dichlorophenyl)ethyl)-6-(3′-methyl-[1,4′-bipiperidin]-1′-yl)-1H-pyrazolo[3,4-b]pyrazine-3-carboxamide hydrochloride] | 100 to 500 |
| CC(c1ccc(Cl)cc1Cl)n1nc(C#N)c2ncc(N3CCC(N4CCCCC4)C(F)C3)nc21 (stereo not drawn) [Example 26, 1-(1-(2,4-Dichlorophenyl)ethyl)-6-(3′-fluoro-[1,4′-bipiperidin]-1′-yl)-1H-pyrazolo[3,4-b]pyrazine-3-carbonitrile 2,2,2-trifluoroacetate] | > 500 |
| CCC1CN(c2cnc3c(C#N)nn(C(C)c4ccc(Cl)cc4Cl)c3n2)CCC1N1CCCCC1 (stereo not drawn) [Example 7, 1-(1-(2,4-Dichlorophenyl)ethyl)-6-(3′-ethyl-[1,4′-bipiperidin]-1′-yl)-1H-pyrazolo[3,4-b]pyrazine-3-carbonitrile 2,2,2-trifluoroacetate] | 100 to 500 |
| C[C@H](c1ccc(Cl)cc1Cl)n1nc(C#N)c2ncc(C3=CC[C@@H](N4CCC[C@H]4C(N)=O)[C@@H](C)C3)nc21 [Example 80, (S)-1-((1R,6S)-4-(3-Cyano-1-((R)-1-(2,4-dichlorophenyl)ethyl)-1H-pyrazolo[3,4-b]pyrazin-6-yl)-6-methylcyclohex-3-en-1-yl)pyrrolidine-2-carboxamide hydrochloride] | 100 to 500 |
| CCOC(=O)c1nn(C(C)c2ccc(Cl)cc2Cl)c2nc(N3CCC(N4CCCCC4)CC3)cnc12 (racemic) [Example 1, Ethyl 6-([1,4′-bipiperidin]-1′-yl)-1-(1-(2,4-dichlorophenyl)ethyl)-1H-pyrazolo[3,4-b]pyrazine-3-carboxylate hydrochloride] | > 500 |
| Cc1nn([C@H](C)c2ccc(Cl)cc2Cl)c2nc(N3CC[C@H](N4CCCC4)[C@H](C)C3)cnc12 [Example 12, 1-((R)-1-(2,4-Dichlorophenyl)ethyl)-3-methyl-6-((3R,4S)-3-methyl-4-(pyrrolidin-1-yl)piperidin-1-yl)-1H-pyrazolo[3,4-b]pyrazine hydrochloride] | < 100 |
| C[C@@H]1CN(c2cnc3c(C#N)nn([C@H](C)c4ccc(Cl)cc4Cl)c3n2)CC[C@@H]1N1CCC[C@H]1CO [Example 33, 1-((R)-1-(2,4-Dichlorophenyl)ethyl)-6-((3R,4S)-4-((S)-2-(hydroxymethyl)pyrrolidin-1-yl)-3-methylpiperidin-1-yl)-1H-pyrazolo[3,4-b]pyrazine-3-carbonitrile hydrochloride] | < 100 |
| CC1CN(c2cnc3cnn(C(C)c4ccc(Cl)cc4Cl)c3n2)CCC1N1CCCCC1 (stereo not drawn) [Example 8, 1-(1-(2,4-Dichlorophenyl)ethyl)-6-(3′-methyl-[1,4′-bipiperidin]-1′-yl)-1H-pyrazolo[3,4-b]pyrazine hydrochloride] | 100 to 500 |

Continued, values first:

| IC50 [nM] | SMILES |
| --- | --- |
| < 100 | C[C@@H]1CN(c2cnc3c(C#N)nn([C@H](C)c4ccc(Cl)cc4F)c3n2)CC[C@@H]1N1CCC[C@H]1CCC(=O)O [Example 90, 3-((S)-1-((3R,4S)-1-(1-((R)-1-(4-chloro-2-fluorophenyl)ethyl)-3-cyano-1H-pyrazolo[3,4-b]pyrazin-6-yl)-3-methylpiperidin-4-yl)pyrrolidin-2-yl)propanoic acid hydrochloric acid] |
| < 100 | Cc1nn([C@H](C)c2ccc(Cl)cc2Cl)c2nc(C3=CCC(N4CCC[C@H]4CCC(N)=O)[C@H](C)C3)cnc12 (stereo partly drawn) [Example 77, 3-((S)-1-((1S,6R)-4-(1-((R)-1-(2,4-Dichlorophenyl)ethyl)-3-methyl-1H-pyrazolo[3,4-b]pyrazin-6-yl)-6-methylcyclohex-3-en-1-yl)pyrrolidin-2-yl)propanamide 2,2,2-trifluoroacetae] |
| 100 to 500 | CNC(=O)[C@@H]1CCCN1[C@H]1CC=C(c2cnc3c(C#N)nn([C@H](C)c4ccc(Cl)cc4Cl)c3n2)C[C@H]1C [Example 91, (S)-1-((1S,6R)-4-(3-Cyano-1-((R)-1-(2,4-dichlorophenyl)ethyl)-1H-pyrazolo[3,4-b]pyrazin-6-yl)-6-methylcyclohex-3-en-1-yl)-N-methylpyrrolidine-2-carboxamide trifluoroacetate] |
| 100 to 500 | CCN(CC1(O)COC1)C1CC=C(c2cnc3c(C#N)nn([C@H](C)c4ccc(Cl)cc4Cl)c3n2)CC1C (stereo partly drawn) [Example 92, 1-((R)-1-(2,4-dichlorophenyl)ethyl)-6-(4-(ethyl((3-hydroxyoxetan-3-yl)methyl)amino)-5-methylcyclohex-1-en-1-yl)-1H-pyrazolo[3,4-b]pyrazine-3-carbonitrile] |
| 100 to 500 | C[C@@H]1C=C(c2cnc3c(C#N)nn([C@H](C)c4ccc(Cl)cc4Cl)c3n2)CC[C@@H]1N1CCC[C@H]1CO [Example 69, 1-((R)-1-(2,4-Dichlorophenyl)ethyl)-6-((3R,4S)-4-((S)-2-(hydroxymethyl)pyrrolidin-1-yl)-3-methylcyclohex-1-en-1-yl)-1H-pyrazolo[3,4-b]pyrazine-3-carbonitrile hydrochloride] |
| > 500 | C[C@H](c1ccc(Cl)cc1Cl)n1nc(C#N)c2ncc(N3CC[C@H](N4CCC[C@H]4C(=O)O)[C@H](C(C)(C)O)C3)nc21 [Example 64, ((3R,4S)-1-(3-Cyano-1-((R)-1-(2,4-dichlorophenyl)ethyl)-1H-pyrazolo[3,4-b]pyrazin-6-yl)-3-(2-hydroxypropan-2-yl)piperidin-4-yl)-L-proline hydrochloride] |
| 100 to 500 | Cc1nn([C@H](C)c2ccc(Cl)cc2Cl)c2nc(N3CC[C@H](N4CCC[C@H]4CO)[C@H](C(N)=O)C3)cnc12 [Example 63, (3R,4S)-1-(1-((R)-1-(2,4-Dichlorophenyl)ethyl)-3-methyl-1H-pyrazolo[3,4-b]pyrazin-6-yl)-4-((S)-2-(hydroxymethyl)pyrrolidin-1-yl)piperidine-3-carboxamide hydrochloride] |
| 100 to 500 | Cc1nn([C@H](C)c2ccc(Cl)cc2Cl)c2nc(N3CC[C@H](N4CCC[C@@H](CC(=O)O)C4)[C@H](CO)C3)cnc12 [Example 65, 2-((3S,3′R,4′S)-1′-(1-((R)-1-(2,4-Dichlorophenyl)ethyl)-3-methyl-1H-pyrazolo[3,4-b]pyrazin-6-yl)-3′-(hydroxymethyl)-[1,4′-bipiperidin]-3-yl)acetic acid hydrochloride] |
| 100 to 500 | CC1CC(c2cnc3c(C#N)nn([C@H](C)c4ccc(Cl)cc4Cl)c3n2)=CCC1N1CCC[C@H]1CC(=O)O (mixture of isomers) [Example 85, 2-((2S)-1-(4-(3-Cyano-1-((R)-1-(2,4-dichlorophenyl)ethyl)-1H-pyrazolo[3,4-b]pyrazin-6-yl)-6-methylcyclohex-3-en-1-yl)pyrrolidin-2-yl)acetic acid 2,2,2-trifluoroacetate] |
| 100 to 500 | Cc1nn([C@H](C)c2ccc(Cl)cc2Cl)c2nc(N3CCC(N4CCC(F)CC4)C(C)C3)cnc12 (stereo partly drawn) [Example 61, 1-((R)-1-(2,4-Dichlorophenyl)ethyl)-6-(4-fluoro-3′-methyl-[1,4′-bipiperidin]-1′-yl)-3-methyl-1H-pyrazolo[3,4-b]pyrazine hydrochloride] |
| 100 to 500 | CC1CC(c2cnc3c(C(F)(F)F)nn([C@H](C)c4ccc(Cl)cc4Cl)c3n2)=CCC1N1CCC[C@H]1C (stereo partly drawn) [Example 88, 1-((R)-1-(2,4-Dichlorophenyl)ethyl)-6-(5-methyl-4-((R)-2-methylpyrrolidin-1-yl)cyclohex-1-en-1-yl)-3-(trifluoromethyl)-1H-pyrazolo[3,4-b]pyrazine trifluoroacetic acid] |
| < 100 | C[C@@H]1CC(c2cnc3c(C#N)nn([C@H](C)c4ccc(Cl)cc4Cl)c3n2)=CCC1N1CCC[C@H]1C (stereo partly drawn) [Example 83] |
